Measurements as given in US7018989B2, “Chemical compounds” (University College Cardiff Consultants, LTD, priority 1995, dated 2006).

The compounds below were run on HIV-2 (assay: Inhibition of HIV-2 in CEM/TK- cells). Settings: CEM/TK- cells, HIV-2; read-out: HIV2 CEM-TK-: EC50 for inhibition of HIV-2 in CEM/TK- cells.
Type: cell-based
Experimental: (§1) Cells were infected with HIV-1 as previously described [Balzarini et al. AIDS (1991), 5, 21–28]. Briefly, 5×10^5 cells per milliliter were infected with HIV-1 or HIV-2 at 100 CCID50 (50% cell culture infective dose) per milliliter of cell suspension. Then 100 μL of the infected cell suspension was transferred to microtiter plate wells and mixed with 100 μL of the appropriate dilutions of the test compounds. After 4 days giant cell formation was recorded microscopically in the HIV-infected cell cultures [CEM], and after 5 days the number of viable cells was determined by trypan blue staining of the HIV-infected cell cultures [MT4].
(§2) The data columns are, in order: • HIV1 MT4: EC50 in μM for inhibition of HIV-1 in MT4 cells. • HIV2 MT4: EC50 in μM for inhibition of HIV-2 in MT4 cells. • CC50 MT4: CC50 in μM for toxicity to MT-4 cells. • HIV1 CEM: EC50 in μM for inhibition of HIV-1 in CEM cells. • HIV2 CEM: EC50 in μM for inhibition of HIV-2 in CEM cells. • HIV2 CEM-TK-: EC50 in μM for inhibition of HIV-2 in CEM/TK^− cells. • CC50 CEM: CC50 in μM for toxicity to CEM cells. • EC50 MSV: EC50 in μM for inhibition of MSV • MCC MSV: Minimum cytotoxic concentration in MSV assay

| SMILES | EC50 |
| --- | --- |
| Cc1cn(C2CC(N=[N+]=[N-])C(COP(=O)(OCCC#N)OCC(F)(F)F)O2)c(=O)[nH]c1=O (centres unmarked) [Cpd 847] | > 250 µM |
| CCCCCCOP(=O)(O)OCC1OC(n2cc(C)c(=O)[nH]c2=O)CC1N=[N+]=[N-] (centres unmarked) [Cpd 857] | > 250 µM |
| COC(=O)C(C)NP(=O)(OC)OCC1OC(n2cc(C)c(=O)[nH]c2=O)CC1N=[N+]=[N-] (centres unmarked) [Cpd 739] | > 250 µM |
| Cc1cn(C2CC(N=[N+]=[N-])C(COP(=O)(O)OCC(F)(F)F)O2)c(=O)[nH]c1=O (centres unmarked) [Cpd 855] | > 250 µM |
| COC(=O)C(C)NP(=O)(OCC1OC(n2cc(C)c(=O)[nH]c2=O)CC1N=[N+]=[N-])Oc1ccc(Br)cc1Br (centres unmarked) [Cpd 777] | 0.19 µM |
| Cc1cn(C2CC(N=[N+]=[N-])C(COP(=O)(OCCC#N)Oc3ccccc3)O2)c(=O)[nH]c1=O (centres unmarked) [Cpd 846] | > 250 µM |
| CCCCCCOP(=O)(OCCC#N)OCC1OC(n2cc(C)c(=O)[nH]c2=O)CC1N=[N+]=[N-] (centres unmarked) [Cpd 856] | > 250 µM |
| COC(=O)C(C)NP(=O)(OCC1OC(n2cc(C)c(=O)[nH]c2=O)CC1N=[N+]=[N-])Oc1c(F)c(F)c(F)c(F)c1F (centres unmarked) [Cpd 780] | 100 µM |

These compounds were tested on CEM cells (assay: Toxicity to CEM cells). Settings: CEM cells.
Type: cell-based, human
Experimental: as §1, §2

| SMILES | CC50 |
| --- | --- |
| Cc1cn(C2CC(N=[N+]=[N-])C(COP(=O)(OCCC#N)OCC(F)(F)F)O2)c(=O)[nH]c1=O (centres unmarked) [Cpd 847] | > 250 µM |
| CCCCCCOP(=O)(O)OCC1OC(n2cc(C)c(=O)[nH]c2=O)CC1N=[N+]=[N-] (centres unmarked) [Cpd 857] | > 250 µM |
| COC(=O)C(C)NP(=O)(OC)OCC1OC(n2cc(C)c(=O)[nH]c2=O)CC1N=[N+]=[N-] (centres unmarked) [Cpd 739] | > 250 µM |
| Cc1cn(C2CC(N=[N+]=[N-])C(COP(=O)(O)OCC(F)(F)F)O2)c(=O)[nH]c1=O (centres unmarked) [Cpd 855] | > 250 µM |
| COC(=O)C(C)NP(=O)(OCC1OC(n2cc(C)c(=O)[nH]c2=O)CC1N=[N+]=[N-])Oc1ccc(Br)cc1Br (centres unmarked) [Cpd 777] | 55 µM |
| Cc1cn(C2CC(N=[N+]=[N-])C(COP(=O)(OCCC#N)Oc3ccccc3)O2)c(=O)[nH]c1=O (centres unmarked) [Cpd 846] | > 250 µM |
| CCCCCCOP(=O)(OCCC#N)OCC1OC(n2cc(C)c(=O)[nH]c2=O)CC1N=[N+]=[N-] (centres unmarked) [Cpd 856] | > 250 µM |
| COC(=O)C(C)NP(=O)(OCC1OC(n2cc(C)c(=O)[nH]c2=O)CC1N=[N+]=[N-])Oc1c(F)c(F)c(F)c(F)c1F (centres unmarked) [Cpd 780] | 106 µM |

What follows are compounds tested on HIV-1 (assay: microbe, parasite or virus in culture). Settings: read-out: HIV1 CEM: EC50 for inhibition of HIV-1 in CEM cells; CEM cells, HIV-1.
Experimental: as §1, §2

| SMILES | EC50 |
| --- | --- |
| Cc1cn(C2CC(N=[N+]=[N-])C(COP(=O)(OCCC#N)OCC(F)(F)F)O2)c(=O)[nH]c1=O (centres unmarked) [Cpd 847] | 12 µM |
| CCCCCCOP(=O)(O)OCC1OC(n2cc(C)c(=O)[nH]c2=O)CC1N=[N+]=[N-] (centres unmarked) [Cpd 857] | 5 µM |
| COC(=O)C(C)NP(=O)(OC)OCC1OC(n2cc(C)c(=O)[nH]c2=O)CC1N=[N+]=[N-] (centres unmarked) [Cpd 739] | 10 µM |
| Cc1cn(C2CC(N=[N+]=[N-])C(COP(=O)(O)OCC(F)(F)F)O2)c(=O)[nH]c1=O (centres unmarked) [Cpd 855] | 17.5 µM |
| COC(=O)C(C)NP(=O)(OCC1OC(n2cc(C)c(=O)[nH]c2=O)CC1N=[N+]=[N-])Oc1ccc(Br)cc1Br (centres unmarked) [Cpd 777] | 0.5 µM |
| Cc1cn(C2CC(N=[N+]=[N-])C(COP(=O)(OCCC#N)Oc3ccccc3)O2)c(=O)[nH]c1=O (centres unmarked) [Cpd 846] | 13 µM |
| CCCCCCOP(=O)(OCCC#N)OCC1OC(n2cc(C)c(=O)[nH]c2=O)CC1N=[N+]=[N-] (centres unmarked) [Cpd 856] | 13 µM |
| COC(=O)C(C)NP(=O)(OCC1OC(n2cc(C)c(=O)[nH]c2=O)CC1N=[N+]=[N-])Oc1c(F)c(F)c(F)c(F)c1F (centres unmarked) [Cpd 780] | 23 µM |

What follows are compounds tested on HIV-2 (assay: Inhibition of HIV-2 in CEM cells (giant cell formation)). Settings: CEM cells, HIV-2; read-out: HIV2 CEM: EC50 for inhibition of HIV-2 in CEM cells.
Type: cell-based
Experimental: as §1, §2

| SMILES | EC50 |
| --- | --- |
| Cc1cn(C2CC(N=[N+]=[N-])C(COP(=O)(OCCC#N)OCC(F)(F)F)O2)c(=O)[nH]c1=O (centres unmarked) [Cpd 847] | 9 µM |
| CCCCCCOP(=O)(O)OCC1OC(n2cc(C)c(=O)[nH]c2=O)CC1N=[N+]=[N-] (centres unmarked) [Cpd 857] | 10 µM |
| COC(=O)C(C)NP(=O)(OC)OCC1OC(n2cc(C)c(=O)[nH]c2=O)CC1N=[N+]=[N-] (centres unmarked) [Cpd 739] | 18 µM |
| Cc1cn(C2CC(N=[N+]=[N-])C(COP(=O)(O)OCC(F)(F)F)O2)c(=O)[nH]c1=O (centres unmarked) [Cpd 855] | 17.5 µM |
| COC(=O)C(C)NP(=O)(OCC1OC(n2cc(C)c(=O)[nH]c2=O)CC1N=[N+]=[N-])Oc1ccc(Br)cc1Br (centres unmarked) [Cpd 777] | 0.55 µM |
| Cc1cn(C2CC(N=[N+]=[N-])C(COP(=O)(OCCC#N)Oc3ccccc3)O2)c(=O)[nH]c1=O (centres unmarked) [Cpd 846] | 14 µM |
| CCCCCCOP(=O)(OCCC#N)OCC1OC(n2cc(C)c(=O)[nH]c2=O)CC1N=[N+]=[N-] (centres unmarked) [Cpd 856] | 25 µM |
| COC(=O)C(C)NP(=O)(OCC1OC(n2cc(C)c(=O)[nH]c2=O)CC1N=[N+]=[N-])Oc1c(F)c(F)c(F)c(F)c1F (centres unmarked) [Cpd 780] | 33 µM |
